Data published in the NIST ThermoML archive (doi:10.1021/je100757w).
Numbers after ± are expanded uncertainties.

Test: xn = mol fraction of the nth substance listed
Settings: for surface tension liquid-gas: Ring tensiometer; for mass density: 101.3 kPa, Liquid

COCCOCCOCCOCCOC [2,5,8,11,14-pentaoxapentadecane] + O
Settings | mass density [kg/m3] | surface tension liquid-gas [mN/m]
298.15 K, x1 = 0.0016 | – | 50.16 ± 0.86
298.15 K, x1 = 0.002 | – | 48.89 ± 0.87
298.15 K, x1 = 0.0026 | – | 47.04 ± 0.86
298.15 K, x1 = 0.0031 | – | 46.37 ± 0.85
298.15 K, x1 = 0.0092 | – | 43.11 ± 0.8
298.15 K, x1 = 0.0142 | 1011.13 ± 0.29 | –
298.15 K, x1 = 0.0174 | – | 41.23 ± 0.79
298.15 K, x1 = 0.0283 | – | 40.1 ± 0.78
298.15 K, x1 = 0.057 | – | 39.54 ± 0.78
298.15 K, x1 = 0.0746 | – | 38.88 ± 0.77
298.15 K, x1 = 0.0747 | 1035.25 ± 0.38 | –
298.15 K, x1 = 0.1026 | – | 38.65 ± 0.77
298.15 K, x1 = 0.1452 | 1036.72 ± 0.42 | –
298.15 K, x1 = 0.1497 | – | 37.66 ± 0.77
298.15 K, x1 = 0.2264 | – | 36.29 ± 0.77
298.15 K, x1 = 0.2309 | 1031.3 ± 0.47 | –
298.15 K, x1 = 0.2862 | – | 35.79 ± 0.77
298.15 K, x1 = 0.2974 | 1026.41 ± 0.52 | –
298.15 K, x1 = 0.4065 | 1020.2 ± 0.65 | –
298.15 K, x1 = 0.4268 | – | 35.09 ± 0.78
298.15 K, x1 = 0.5085 | 1016.34 ± 0.81 | –
298.15 K, x1 = 0.5414 | – | 34.92 ± 0.8
298.15 K, x1 = 0.5863 | 1014.23 ± 0.96 | –
298.15 K, x1 = 0.6144 | – | 34.46 ± 0.81
298.15 K, x1 = 0.6788 | 1012.16 ± 1.2 | –
298.15 K, x1 = 0.787 | – | 34.2 ± 0.85
298.15 K, x1 = 0.8139 | 1009.47 ± 1.5 | –
298.15 K, x1 = 0.8286 | – | 34.19 ± 0.86
298.15 K, x1 = 0.854 | 1008.76 ± 1.6 | –
298.15 K, x1 = 0.9196 | – | 33.91 ± 0.88
298.15 K, x1 = 0.9569 | 1007.43 ± 2 | –
298.15 K, x1 = 1 | 1007.26 ± 2.1 | 33.74 ± 0.89
308.15 K, x1 = 0.0014 | – | 51 ± 0.86
308.15 K, x1 = 0.0023 | – | 46.99 ± 0.83
308.15 K, x1 = 0.0032 | – | 45.45 ± 0.82
308.15 K, x1 = 0.004 | – | 44.21 ± 0.81
308.15 K, x1 = 0.009 | – | 42.87 ± 0.8
308.15 K, x1 = 0.0142 | 1006.56 ± 0.27 | –
308.15 K, x1 = 0.0175 | – | 39.9 ± 0.78
308.15 K, x1 = 0.0275 | – | 39.08 ± 0.77
308.15 K, x1 = 0.0539 | – | 38.34 ± 0.77
308.15 K, x1 = 0.0715 | – | 37.36 ± 0.76
308.15 K, x1 = 0.0747 | 1027.26 ± 0.35 | –
308.15 K, x1 = 0.099 | – | 37.28 ± 0.76
308.15 K, x1 = 0.1452 | 1027.67 ± 0.39 | –
308.15 K, x1 = 0.1478 | – | 35.51 ± 0.75
308.15 K, x1 = 0.2212 | – | 34.95 ± 0.76
308.15 K, x1 = 0.2309 | 1022.01 ± 0.44 | –
308.15 K, x1 = 0.2974 | 1017.12 ± 0.49 | –
308.15 K, x1 = 0.3074 | – | 34.22 ± 0.76
308.15 K, x1 = 0.4065 | 1010.92 ± 0.61 | –
308.15 K, x1 = 0.4252 | – | 33.85 ± 0.77
308.15 K, x1 = 0.5085 | 1007.06 ± 0.77 | –
308.15 K, x1 = 0.5523 | – | 33.58 ± 0.79
308.15 K, x1 = 0.5863 | 1004.92 ± 0.92 | –
308.15 K, x1 = 0.6404 | – | 33.32 ± 0.8
308.15 K, x1 = 0.6788 | 1002.83 ± 1.1 | –
308.15 K, x1 = 0.7835 | – | 33.05 ± 0.83
308.15 K, x1 = 0.8139 | 1000.17 ± 1.5 | –
308.15 K, x1 = 0.814 | – | 32.88 ± 0.84
308.15 K, x1 = 0.854 | 999.47 ± 1.6 | –
308.15 K, x1 = 0.9479 | – | 32.64 ± 0.87
308.15 K, x1 = 0.9569 | 998.16 ± 1.9 | –
308.15 K, x1 = 1 | 997.98 ± 2.1 | 32.45 ± 0.88
318.15 K, x1 = 0.0013 | – | 58.46 ± 0.93
318.15 K, x1 = 0.0019 | – | 54.2 ± 0.89
318.15 K, x1 = 0.0024 | – | 51.29 ± 0.89
318.15 K, x1 = 0.0033 | – | 47.59 ± 0.86
318.15 K, x1 = 0.0098 | – | 42.27 ± 0.79
318.15 K, x1 = 0.0142 | 1001.29 ± 0.26 | –
318.15 K, x1 = 0.0187 | – | 40.41 ± 0.78
318.15 K, x1 = 0.0314 | – | 40.39 ± 0.78
318.15 K, x1 = 0.0584 | – | 38.25 ± 0.77
318.15 K, x1 = 0.0747 | 1019.04 ± 0.33 | –
318.15 K, x1 = 0.0748 | – | 37.24 ± 0.76
318.15 K, x1 = 0.1022 | – | 36.5 ± 0.76
318.15 K, x1 = 0.1452 | 1018.51 ± 0.36 | –
318.15 K, x1 = 0.1482 | – | 35.37 ± 0.75
318.15 K, x1 = 0.2219 | – | 33.81 ± 0.75
318.15 K, x1 = 0.2309 | 1012.58 ± 0.41 | –
318.15 K, x1 = 0.2974 | 1007.72 ± 0.46 | –
318.15 K, x1 = 0.3152 | – | 33.3 ± 0.75
318.15 K, x1 = 0.4065 | 1001.56 ± 0.58 | –
318.15 K, x1 = 0.4328 | – | 32.94 ± 0.77
318.15 K, x1 = 0.5085 | 997.73 ± 0.75 | –
318.15 K, x1 = 0.5259 | – | 32.75 ± 0.78
318.15 K, x1 = 0.5863 | 995.58 ± 0.91 | –
318.15 K, x1 = 0.5974 | – | 32.47 ± 0.79
318.15 K, x1 = 0.6788 | 993.48 ± 1.1 | –
318.15 K, x1 = 0.7667 | – | 32.22 ± 0.82
318.15 K, x1 = 0.8139 | 990.83 ± 1.5 | –
318.15 K, x1 = 0.8249 | – | 32.05 ± 0.83
318.15 K, x1 = 0.854 | 990.15 ± 1.6 | –
318.15 K, x1 = 0.9324 | – | 31.94 ± 0.85
318.15 K, x1 = 0.9569 | 988.89 ± 1.9 | –
318.15 K, x1 = 1 | 988.72 ± 2.1 | 31.71 ± 0.87
